Literature values, collected in patent US20230043979A1, “PHOSPHODIESTERASE-4 INHIBITOR COMBINATIONS, METHODS OF MAKING, AND METHODS OF USE THEREOF” (VK RESEARCH ASSOCIATES INC., priority 2021, published 2023).

Conditions: for Median plasma/elimination Half-life (T1/2): Table 1, PDE4 inhibitors, in h; for half-life / median time to maximum concentration: oral administration

| Compound | Median plasma/elimination Half-life (T1/2) | half-life | median time to maximum concentration |
| --- | --- | --- | --- |
| CCOc1cc([C@@H](CS(C)(=O)=O)N2C(=O)c3cccc(NC(C)=O)c3C2=O)ccc1OC [Apremilast] | 6 to 9 | – | – |
| COc1ccc([C@]2(C#N)CC[C@@H](C(=O)O)CC2)cc1OC1CCCC1 [Cilomilast] | 7 | – | – |
| N#Cc1ccc(Oc2ccc3c(c2)COB3O)cc1 [Crisaborole] | 11.9 ± 8.3 | – | – |

More lines, now with the values ahead:

| Median plasma/elimination Half-life (T1/2) | half-life | median time to maximum concentration | Compound |
| --- | --- | --- | --- |
| 19 | – | – | CC(C)C(=O)c1c(C(C)C)nn2ccccc12 [Ibudilast] |
| 17 - 30 | 17 to 30 h | 1 to 2 h | O=C(Nc1c(Cl)cncc1Cl)c1ccc(OC(F)F)c(OCC2CC2)c1 [Roflumilast] |
| 3 | about 3 hours | about 30 minutes | COc1ccc(C2CNC(=O)C2)cc1OC1CCCC1 (stereo not shown) [Rolipram] |
